Here are results for one compound from patent US20070048372A1, “Method for treating non-inflammatory osteoarthritic pain” (SRZ Properties, Inc., priority 2005, published 2007).

For experiment [1], the system named is monosodium iodoacetate-induced tactile allodynia. Briefly: Monosodium iodoacetate-induced tactile allodynia (von Frey filaments). Type of experiment: in vivo, rat (Wistar). Conditions: 3 mg/kg s.c., 60 minutes before test.
Experiment [2] concerns monosodium iodoacetate-induced mechanical hyperalgesia. Briefly: Monosodium iodoacetate-induced mechanical hyperalgesia (Randall-Selitto paw pressure). Type of experiment: in vivo, rat (Wistar). Conditions: 3 mg/kg s.c.
Experiment [3] concerns rat formalin paw test (late phase). Put plainly: Rat formalin paw test (late phase): number of flinches and licking time. Type of experiment: in vivo, rat (Rj: Wistar (Han)). The procedure: Rats were given an intraplantar injection of 5% formalin (50 μl) into the posterior left paw. This treatment induces a recognizable flinching and licking response of the affected paw in control animals. The number of flinches was counted for 15 minutes, beginning 20 minutes after injection of formalin. The time spent licking the affected paw was also recorded.
Male Rj: Wistar (Han) rats, 10 per group, weighing 100-130 g at the beginning of the experiments were studied per group. The test was performed blind.
Lacosamide (20 mg/kg), gabapentin (50 and 100 mg/kg), combinations of lacosamide (20 mg/kg) with gabapentin (50 and 100 mg/kg), and vehicle were administered i.p. 10 minutes before injection of formalin.
Lacosamide (10 and 20 mg/kg), morphine (2 and 4 mg/kg), combinations of lacosamide (10 and 20 mg/kg) with morphine (2 and 4 mg/kg), and vehicle were administered i.p. 10 minutes before injection of formalin.
Lacosamide (10 mg/kg), duloxetine (8 mg/kg), a combination of lacosamide (10 mg/kg) with duloxetine (8 mg/kg), and vehicle were administered i.p. 10 minutes before injection of formalin.
Lacosamide (10 and 20 mg/kg), memantine (4 and 8 mg/kg), combinations of lacosamide (10 and 20 mg/kg) with memantine (4 and 8 mg/kg), and vehicle were administered i.p. 10 minutes before injection of formalin.
Lacosamide (10 and 20 mg/kg), naproxen (8 and 16 mg/kg), combinations of lacosamide (10 and 20 mg/kg) with […] (8 and 16 mg/kg), and vehicle were administered i.p. 10 minutes before injection of formalin. Morphine (8 mg/kg) was included as a comparative treatment.

The mark [4] stands for this setting: Example 4, 2 and 4 mg/kg i.p. alone, did not reach statistical significance.

On to `CN1CC[C@]23c4c5ccc(O)c4O[C@H]2[C@@H](O)C=C[C@H]3[C@H]1C5` [Morphine], for which the “tactile allodynia of iodoacetate-treated rats (von Frey)” value (shortened to “tactile allodynia”) in experiment [1] (day 3) was “improved tactile allodynia”. The “tactile allodynia” value in experiment [1] (day 7) was “improved tactile allodynia”. In experiment [1] (day 14), the “tactile allodynia” value was “not on day 14”. Moreover, in experiment [2] (day 3), the “paw pressure withdrawal threshold compared to iodoacetate/vehicle treated animals (mechanical hyperalgesia)” value is given as “increase in paw pressure withdrawal threshold”. The “mechanical hyperalgesia (paw pressure withdrawal threshold)” value in experiment [2] (day 7) is “reduced mechanical hyperalgesia”. Also, in experiment [3] (Example 4, 2 mg/kg i.p. alone), the “Licking time % change (a) compared with vehicle control” value (“Licking time % change” for short) is −1% (a), the “Licking time (seconds) mean ± SEM” value is given as 289.3 ± 30.7 NS (a) seconds, the “No. of flinches % change (a) compared with vehicle control” value (from here on “No. of flinches % change”) was −7% (a) and the “No. of flinches mean ± SEM” value was 139.5 ± 25.3 NS (a). Further, in experiment [3] (Example 4, 4 mg/kg i.p. alone), the “Licking time % change” value is on record as −20% (a), the “Licking time (seconds) mean ± SEM” value was 234.9 ± 37.3 NS (a) seconds, the “No. of flinches % change” value is −37% (a) and the “No. of flinches mean ± SEM” value is given as 94.3 ± 21.1 NS (a). In addition, in experiment [3] (setting [4]), the “effect on the number of flinches as compared with vehicle controls” value was “dose-dependently decreased” and the “effect on the time spent licking as compared with vehicle controls” value is reported as “dose-dependently decreased”. In addition, in experiment [3] (Example 7, 8 mg/kg i.p. alone), the “Licking time % change” value was −100% (a), the “Licking time (seconds) mean ± SEM” value was 0.0 ± 0.0 (a) seconds, the “No. of flinches % change” value was −100% (a) and the “No. of flinches mean ± SEM” value is 0.2 ± 0.1 (a). Moreover, in experiment [3] (Example 7, 8 mg/kg i.p. alone), the “effect on flinching and the time spent licking as compared with vehicle controls” value was “eliminated flinching and the time spent licking”.
